# Measured values from patent US20120029177A1, “HETEROCYCLE-AMINO ACID DERIVATIVES FOR TARGETING CANCER TISSUE AND RADIOACTIVE OR NON-RADIOACTIVE LABELED COMPOUNDS THEREOF” (SNU R&DB FOUNDATION, priority 2009, published 2012).
# Tested on: SNU-C4 xenografted nude mice
# Assay: Biodistribution study in SNU-C4 xenografted nude mice after intravenous injection
# Assay type: in vivo, mouse
# Settings: for % ID/g Tumor: SNU-C4 tumor
# Procedure: Human colon cancer cell line SNU-C4 was cultured in RPMI1640 media containing 10% fetal bovine serum and harvested using trypsin. The cells were washed using 10 mL PBS and centrifugation at 3,000 rpm. Each nude mouse was injected with 2×10^5 cells/0.1 mL on the right shoulder subcutaneously. On 13 days post-injection, each 10 μCi/0.1 mL of ^68Ga labeled agent was injected into the xenografted mice through the tail vein. The injected mice were sacrificed at 10 min, 30 min, 1 hr, and 2 hr, cancer, blood, muscle, heart, liver, spleen, stomach, intestine, and bone were obtained, weighed, and their radioactivities were counted. The results were expressed as percentages of injected dose per gram tissue (% ID/g).
# [1] = 10 min after intravenous injection
# [2] = 30 min after intravenous injection
# [3] = 1 hr after intravenous injection
# [4] = 2 hr after intravenous injection
structure (smiles),measurement,setting,value
"O=C([O-])CN1CCNCCN(CC(=O)[O-])CCNCC1.[68Ga+3] [^68Ga-DO2A, reference compound]",% ID/g Tumor,[1],2.71 ± 0.51 % ID/g
same,% ID/g Tumor,[2],2.10 ± 0.23 % ID/g
same,% ID/g Tumor,[3],0.99 ± 0.10 % ID/g
same,% ID/g Tumor,[4],0.67 ± 0.12 % ID/g
same,% ID/g Blood,[1],7.82 ± 1.05 % ID/g
same,% ID/g Blood,[2],3.61 ± 0.74 % ID/g
same,% ID/g Blood,[3],1.12 ± 0.27 % ID/g
same,% ID/g Blood,[4],0.44 ± 0.06 % ID/g
same,% ID/g Bone,[1],2.56 ± 0.61 % ID/g
same,% ID/g Bone,[2],1.54 ± 0.53 % ID/g
same,% ID/g Bone,[3],0.72 ± 0.23 % ID/g
same,% ID/g Bone,[4],0.58 ± 0.19 % ID/g
same,% ID/g Heart,[1],2.33 ± 0.32 % ID/g
same,% ID/g Heart,[2],0.97 ± 0.20 % ID/g
same,% ID/g Heart,[3],0.37 ± 0.10 % ID/g
same,% ID/g Heart,[4],0.23 ± 0.03 % ID/g
same,% ID/g Intestine,[1],2.24 ± 0.36 % ID/g
same,% ID/g Intestine,[2],1.27 ± 0.25 % ID/g
same,% ID/g Intestine,[3],0.68 ± 0.11 % ID/g
same,% ID/g Intestine,[4],0.62 ± 0.07 % ID/g
same,% ID/g Kidney,[1],32.32 ± 21.63 % ID/g
same,% ID/g Kidney,[2],13.61 ± 3.98 % ID/g
same,% ID/g Kidney,[3],8.46 ± 2.11 % ID/g
same,% ID/g Kidney,[4],6.90 ± 1.10 % ID/g
same,% ID/g Liver,[1],2.91 ± 0.31 % ID/g
same,% ID/g Liver,[2],2.75 ± 0.49 % ID/g
same,% ID/g Liver,[3],2.31 ± 0.27 % ID/g
same,% ID/g Liver,[4],2.17 ± 0.20 % ID/g
same,% ID/g Lung,[1],6.96 ± 1.06 % ID/g
same,% ID/g Lung,[2],3.57 ± 0.80 % ID/g
same,% ID/g Lung,[3],1.32 ± 0.35 % ID/g
same,% ID/g Lung,[4],0.87 ± 0.25 % ID/g
same,% ID/g Muscle,[1],2.81 ± 0.82 % ID/g
same,% ID/g Muscle,[2],1.45 ± 0.42 % ID/g
same,% ID/g Muscle,[3],0.45 ± 0.17 % ID/g
same,% ID/g Muscle,[4],0.13 ± 0.07 % ID/g
same,% ID/g Spleen,[1],1.86 ± 0.24 % ID/g
same,% ID/g Spleen,[2],1.03 ± 0.22 % ID/g
same,% ID/g Spleen,[3],0.47 ± 0.10 % ID/g
same,% ID/g Spleen,[4],0.38 ± 0.08 % ID/g
same,% ID/g Stomach,[1],2.52 ± 0.46 % ID/g
same,% ID/g Stomach,[2],1.22 ± 0.32 % ID/g
same,% ID/g Stomach,[3],0.38 ± 0.05 % ID/g
same,% ID/g Stomach,[4],0.18 ± 0.03 % ID/g
"O=C([O-])CN1CCNCCN(CC(=O)[O-])CCN(CC(=O)[O-])CC1.[68Ga+3] [^68Ga-DO3A, reference compound]",% ID/g Tumor,[1],3.14 ± 0.73 % ID/g
same,% ID/g Tumor,[2],1.83 ± 0.20 % ID/g
same,% ID/g Tumor,[3],0.93 ± 0.33 % ID/g
same,% ID/g Tumor,[4],0.54 ± 0.04 % ID/g
same,% ID/g Blood,[1],6.96 ± 0.18 % ID/g
same,% ID/g Blood,[2],3.21 ± 0.58 % ID/g
same,% ID/g Blood,[3],1.03 ± 0.34 % ID/g
same,% ID/g Blood,[4],0.22 ± 0.02 % ID/g
same,% ID/g Bone,[1],1.64 ± 0.48 % ID/g
same,% ID/g Bone,[2],0.97 ± 0.28 % ID/g
same,% ID/g Bone,[3],0.38 ± 0.12 % ID/g
same,% ID/g Bone,[4],0.28 ± 0.33 % ID/g
same,% ID/g Heart,[1],1.75 ± 0.12 % ID/g
same,% ID/g Heart,[2],0.77 ± 0.11 % ID/g
same,% ID/g Heart,[3],0.32 ± 0.09 % ID/g
same,% ID/g Heart,[4],0.06 ± 0.09 % ID/g
same,% ID/g Intestine,[1],1.87 ± 0.06 % ID/g
same,% ID/g Intestine,[2],1.00 ± 0.14 % ID/g
same,% ID/g Intestine,[3],0.64 ± 0.17 % ID/g
same,% ID/g Intestine,[4],0.42 ± 0.08 % ID/g
same,% ID/g Kidney,[1],11.96 ± 0.51 % ID/g
same,% ID/g Kidney,[2],7.85 ± 1.00 % ID/g
same,% ID/g Kidney,[3],6.52 ± 3.13 % ID/g
same,% ID/g Kidney,[4],7.50 ± 3.82 % ID/g
same,% ID/g Liver,[1],1.99 ± 0.03 % ID/g
same,% ID/g Liver,[2],1.35 ± 0.13 % ID/g
same,% ID/g Liver,[3],1.02 ± 0.16 % ID/g
same,% ID/g Liver,[4],0.93 ± 0.05 % ID/g
same,% ID/g Lung,[1],5.81 ± 0.54 % ID/g
same,% ID/g Lung,[2],2.82 ± 0.59 % ID/g
same,% ID/g Lung,[3],1.26 ± 0.28 % ID/g
same,% ID/g Lung,[4],0.61 ± 0.23 % ID/g
same,% ID/g Muscle,[1],1.69 ± 0.39 % ID/g
same,% ID/g Muscle,[2],0.92 ± 0.27 % ID/g
same,% ID/g Muscle,[3],0.32 ± 0.17 % ID/g
same,% ID/g Muscle,[4],0.10 ± 0.03 % ID/g
same,% ID/g Spleen,[1],1.63 ± 0.08 % ID/g
same,% ID/g Spleen,[2],0.95 ± 0.14 % ID/g
same,% ID/g Spleen,[3],0.64 ± 0.09 % ID/g
same,% ID/g Spleen,[4],0.53 ± 0.11 % ID/g
same,% ID/g Stomach,[1],2.37 ± 0.56 % ID/g
same,% ID/g Stomach,[2],1.00 ± 0.24 % ID/g
same,% ID/g Stomach,[3],0.43 ± 0.20 % ID/g
same,% ID/g Stomach,[4],0.16 ± 0.05 % ID/g
"O=C([O-])CN1CCN(CC(=O)[O-])CCN(CC(=O)O)CCN(CC(=O)[O-])CC1.[68Ga+3] [^68Ga-DOTA, reference compound]",% ID/g Tumor,[1],2.55 ± 0.81 % ID/g
same,% ID/g Tumor,[2],1.26 ± 0.23 % ID/g
same,% ID/g Tumor,[3],0.60 ± 0.06 % ID/g
same,% ID/g Tumor,[4],0.41 ± 0.09 % ID/g
same,% ID/g Blood,[1],7.52 ± 0.77 % ID/g
same,% ID/g Blood,[2],2.76 ± 0.41 % ID/g
same,% ID/g Blood,[3],0.90 ± 0.19 % ID/g
same,% ID/g Blood,[4],0.21 ± 0.01 % ID/g
same,% ID/g Bone,[1],1.86 ± 0.22 % ID/g
same,% ID/g Bone,[2],0.85 ± 0.11 % ID/g
same,% ID/g Bone,[3],0.33 ± 0.10 % ID/g
same,% ID/g Bone,[4],0.17 ± 0.17 % ID/g
same,% ID/g Heart,[1],2.04 ± 0.19 % ID/g
same,% ID/g Heart,[2],0.68 ± 0.09 % ID/g
same,% ID/g Heart,[3],0.23 ± 0.08 % ID/g
same,% ID/g Heart,[4],0.08 ± 0.05 % ID/g
same,% ID/g Intestine,[1],1.62 ± 0.11 % ID/g
same,% ID/g Intestine,[2],0.68 ± 0.08 % ID/g
same,% ID/g Intestine,[3],0.36 ± 0.05 % ID/g
same,% ID/g Intestine,[4],0.26 ± 0.08 % ID/g
same,% ID/g Kidney,[1],16.19 ± 1.83 % ID/g
same,% ID/g Kidney,[2],6.33 ± 0.95 % ID/g
same,% ID/g Kidney,[3],4.13 ± 1.13 % ID/g
same,% ID/g Kidney,[4],2.92 ± 0.97 % ID/g
same,% ID/g Liver,[1],1.30 ± 0.15 % ID/g
same,% ID/g Liver,[2],0.60 ± 0.08 % ID/g
same,% ID/g Liver,[3],0.32 ± 0.04 % ID/g
same,% ID/g Liver,[4],0.21 ± 0.03 % ID/g
same,% ID/g Muscle,[1],2.08 ± 0.11 % ID/g
same,% ID/g Muscle,[2],0.70 ± 0.12 % ID/g
same,% ID/g Muscle,[3],0.26 ± 0.12 % ID/g
same,% ID/g Muscle,[4],0.10 ± 0.04 % ID/g
same,% ID/g Spleen,[1],1.41 ± 0.08 % ID/g
same,% ID/g Spleen,[2],0.56 ± 0.07 % ID/g
same,% ID/g Spleen,[3],0.27 ± 0.06 % ID/g
same,% ID/g Spleen,[4],0.18 ± 0.06 % ID/g
same,% ID/g Stomach,[1],1.86 ± 0.39 % ID/g
same,% ID/g Stomach,[2],0.72 ± 0.15 % ID/g
same,% ID/g Stomach,[3],0.26 ± 0.06 % ID/g
same,% ID/g Stomach,[4],0.10 ± 0.03 % ID/g
"O=C([O-])CN1CCN(CC(=O)[O-])CCN(CC(=O)[O-])CC1.[68Ga+3] [^68Ga-NOTA, reference compound]",% ID/g Tumor,[1],2.69 ± 0.19 % ID/g
same,% ID/g Tumor,[2],1.28 ± 0.22 % ID/g
same,% ID/g Tumor,[3],0.59 ± 0.18 % ID/g
same,% ID/g Tumor,[4],0.43 ± 0.06 % ID/g
same,% ID/g Blood,[1],7.13 ± 0.77 % ID/g
same,% ID/g Blood,[2],2.55 ± 0.31 % ID/g
same,% ID/g Blood,[3],0.41 ± 0.24 % ID/g
same,% ID/g Blood,[4],0.07 ± 0.00 % ID/g
same,% ID/g Bone,[1],1.95 ± 0.06 % ID/g
same,% ID/g Bone,[2],0.65 ± 0.16 % ID/g
same,% ID/g Bone,[3],0.15 ± 0.09 % ID/g
same,% ID/g Bone,[4],0.06 ± 0.07 % ID/g
same,% ID/g Heart,[1],1.83 ± 0.16 % ID/g
same,% ID/g Heart,[2],0.59 ± 0.07 % ID/g
same,% ID/g Heart,[3],0.15 ± 0.10 % ID/g
same,% ID/g Heart,[4],0.07 ± 0.07 % ID/g
same,% ID/g Intestine,[1],1.52 ± 0.08 % ID/g
same,% ID/g Intestine,[2],0.84 ± 0.10 % ID/g
same,% ID/g Intestine,[3],0.33 ± 0.14 % ID/g
same,% ID/g Intestine,[4],0.47 ± 0.17 % ID/g
same,% ID/g Kidney,[1],11.61 ± 0.61 % ID/g
same,% ID/g Kidney,[2],7.44 ± 1.29 % ID/g
same,% ID/g Kidney,[3],3.56 ± 2.10 % ID/g
same,% ID/g Kidney,[4],2.73 ± 0.32 % ID/g
same,% ID/g Liver,[1],1.98 ± 0.19 % ID/g
same,% ID/g Liver,[2],1.44 ± 0.29 % ID/g
same,% ID/g Liver,[3],1.04 ± 0.35 % ID/g
same,% ID/g Liver,[4],1.21 ± 0.21 % ID/g
same,% ID/g Muscle,[1],1.68 ± 0.86 % ID/g
same,% ID/g Muscle,[2],0.77 ± 0.19 % ID/g
same,% ID/g Muscle,[3],0.20 ± 0.17 % ID/g
same,% ID/g Muscle,[4],0.04 ± 0.01 % ID/g
same,% ID/g Spleen,[1],1.41 ± 0.19 % ID/g
same,% ID/g Spleen,[2],0.62 ± 0.09 % ID/g
same,% ID/g Spleen,[3],0.22 ± 0.09 % ID/g
same,% ID/g Spleen,[4],0.19 ± 0.03 % ID/g
same,% ID/g Stomach,[1],2.13 ± 0.26 % ID/g
same,% ID/g Stomach,[2],0.76 ± 0.31 % ID/g
same,% ID/g Stomach,[3],0.20 ± 0.10 % ID/g
same,% ID/g Stomach,[4],0.11 ± 0.03 % ID/g
